Results published in the NIST ThermoML archive (doi:10.1021/je7007022).

Test: excess molar enthalpy (molar enthalpy of mixing); xn = mol fraction of the nth substance listed
Details: 303.15 K, 101 kPa, Liquid, Flow calorimetry

O=CO [formic acid] + C1COCCO1
Details | excess molar enthalpy [kcal/mol]
x2 = 0.056 | -0.0504
x2 = 0.114 | -0.096
x2 = 0.225 | -0.194
x2 = 0.301 | -0.275
x2 = 0.383 | -0.35
x2 = 0.472 | -0.401
x2 = 0.58 | -0.418
x2 = 0.705 | -0.354
x2 = 0.762 | -0.274
x2 = 0.836 | -0.182
x2 = 0.917 | -0.0574
